Laboratory results taken from PubChem BioAssay AID1963835 (Molecular Pharmacology Branch, DTP, NCI, 2024).

System: 699152-130-R-J1-PDC complex spheroid viability
Experiment: Anticancer human tumor 699152-130-R-J1-PDC patient-derived pancreatic carcinoma cell line growth inhibition [POLQ]
Settings: for IC50: curve of first compound; for viability, T/C: stronger effect = lower value
Description: Multicellular complex tumor spheroid response to Polymerase (POL) inhibitors (novobiocin, ART-558, RP6685) in combination with a variety of drugs and investigational agents in selected tumor cell lines
The POL inhibitors (novobiocin, ART-558, and RP6685) were evaluated both individually and in combination with standard of care and investigational anticancer small molecules within a complex spheroid model of solid tumors. . Complex spheroids include a stromal component modeled by human endothelial cells (HUVEC) and fibroblasts modeled by human mesenchymal stem cells (MSCs). The concentration ranges selected for each drug and investigational agent were based upon clinically achievable concentrations if the clinical Cmax of the agent was known.
Compounds. The drugs and investigational agents: novobiocin (NSC847541), ART-558 (NSC835418), RP-6685 (NSC848927), peposertib (NSC802822), ceralasertib (NSC780249), elimusertib (NSC800525), camonsertib (NSC841442), AZD-1390 (NSC803789), olaparib (NSC753686), talazoparib (NSC767125), rucaparib (NSC756644), sotorasib (NSC818433), MRTX-1133 (NSC836407), SN-38 (NSC673596), topotecan (NSC609699), epotoside (NSC141540), doxorubicin (NSC123127), gemcitabine (NSC613327), 5-fluorouracil (NSC19893), paclitaxel (NSC125973), vemurafenib (NSC761431), MSA-2 (NSC828583), SN-011 (NSC837082), adavosertib (NSC754352), prexasertib (NSC758257), carboplatin (NSC241240) and oxaliplatin (NSC266046), were obtained from the National Cancer Institute (NCI) Developmental Therapeutics Program Chemical Repository (21). The FDA-approved anticancer drug set is available from the Developmental Therapeutics Program at https://dtp.cancer.gov/organization/dscb/obtaining/. […] The stock solutions were prepared in dimethyl sulfoxide (DMSO, Sigma-Aldrich, St. Louis, MO, cat. D2650), except for the platinum compounds which were prepared in saline (Quality Biological, Gaithersburg, MD, cat. 114-055-101), at 800-fold the tested concentration and stored at -70 degrees C prior to their use. All drugs and investigational agents were tested over a range starting from a high concentration at or near the clinical Cmax and decreasing in half-log increments. If the clinical Cmax for an agent had not been determined, the highest concentration tested was 10 microM, except for SN-38, which was tested at a high concentration of 1 microM.
Cell Culture. All cells were maintained in an incubator at 37 degrees C and 5% CO2 with 95% humidity. The PDC lines were cultured according to standard operating procedures established by the NCI PDMR (https://pdmr.cancer.gov). Table 3 of the manuscript, lists the cell lines along with the number of the three cell types plated to form the mct-spheroids and media for tumor cell growth. After thawing, all PDC lines, except 997537-175-T-J1-PDC and 415267-285-R-J2-PDC, were cultured in Matrigel-coated flasks prepared with a working solution of 1X Ham's F-12 nutrient mix, without supplementation (Thermo Fisher Scientific, cat. 11765054), 100 U/mL penicillin-streptomycin (Thermo Fisher Scientific, cat. 15140122), and 2.5% Matrigel (Corning Inc., Corning, NY, cat. 354248) for the first three passages. The two PDC lines 997537-175-T-J1-PDC and 415267-285-R-J2-PDC were cultured on uncoated flasks. The 857933-349-R-J2-PDC line was cultured in 6C/Colon 1B media containing advanced DMEM/F-12 (Thermo Fisher Scientific, cat. 12634028), 10 mM HEPES (Thermo Fisher Scientific, cat. 15630080), 1X GlutaMAX supplement (Thermo Fisher Scientific, cat. 35050061), 0.1 mg/mL primocin (InvivoGen, San Diego, CA, cat. ant-pm-2), 10% defined fetal bovine serum, heat inactivated (HyClone Laboratories Inc., Logan, UT, cat. SH30070.03HI), 50% L-WRN conditioned media (ATCC, cat. CRL-3276), 1.25 mM N-Acetyl-L-cysteine (Sigma-Aldrich, cat. A9165), 10 mM nicotinamide (Sigma-Aldrich, cat. N0636), 1X B-27 supplement (Thermo Fisher Scientific, cat. 17504044), 1X N-2 supplement (Thermo Fisher Scientific, cat. […]

[1] = second compound 0.0316 µM, first compound 0.0316 µM
[2] = second compound 0.0316 µM, first compound 0.1 µM
[3] = second compound 0.0316 µM, first compound 0.316 µM
[4] = second compound 0.0316 µM, first compound 1 µM
[5] = second compound 0.1 µM, first compound 0.0316 µM
[6] = second compound 0.1 µM, first compound 0.1 µM
[7] = second compound 0.1 µM, first compound 0.316 µM
[8] = second compound 0.1 µM, first compound 1 µM
[9] = second compound 0.316 µM, first compound 0.0316 µM
[10] = second compound 0.316 µM, first compound 0.1 µM
[11] = second compound 0.316 µM, first compound 0.316 µM
[12] = second compound 0.316 µM, first compound 1 µM
[13] = second compound 1 µM, first compound 0.0316 µM
[14] = second compound 1 µM, first compound 0.1 µM
[15] = second compound 1 µM, first compound 0.316 µM
[16] = second compound 1 µM, first compound 1 µM
[17] = second compound 3.16 µM, first compound 0.0316 µM
[18] = second compound 3.16 µM, first compound 0.1 µM
[19] = second compound 3.16 µM, first compound 0.316 µM
[20] = second compound 3.16 µM, first compound 1 µM
[21] = second compound 10 µM, first compound 0.0316 µM
[22] = second compound 10 µM, first compound 0.1 µM
[23] = second compound 10 µM, first compound 0.316 µM
[24] = second compound 10 µM, first compound 1 µM
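Further: spheroids exposed to agents for 7 days before viability reading.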
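Wherever viability, T/C is given: percent of DMSO vehicle control viability so 100% = vehicle and 0% = no viable signal.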

SMILES: CCc1c2c(nc3ccc(O)cc13)-c1cc3c(c(=O)n1C2)COC(=O)[C@]3(O)CC + COC1C(OC(N)=O)C(O)C(Oc2ccc3c(O)c(NC(=O)c4ccc(O)c(CC=C(C)C)c4)c(=O)oc3c2C)OC1(C)C
- IC50 (second compound 0.0316 µM): 22.6 nM
- IC50 (second compound 0.1 µM): 21.3 nM
- IC50 (second compound 0.316 µM): 25 nM
- IC50 (second compound 1 µM): 40.5 nM
- IC50 (second compound 3.16 µM): 25.6 nM
- IC50 (second compound 10 µM): 24.9 nM
- viability, T/C (second compound 0.0316 µM, first compound 0.00316 µM): 73.5%
- viability, T/C (second compound 0.0316 µM, first compound 0.01 µM): 51.3%
- viability, T/C [1]: 43.5%
- viability, T/C [2]: 41.9%
- viability, T/C [3]: 24.4%
- viability, T/C [4]: 9.02%
- viability, T/C (second compound 0.1 µM, first compound 0.00316 µM): 79.7%
- viability, T/C (second compound 0.1 µM, first compound 0.01 µM): 49.5%
- viability, T/C [5]: 45.1%
- viability, T/C [6]: 37.3%
- viability, T/C [7]: 26.5%
- viability, T/C [8]: 10.1%
- viability, T/C (second compound 0.316 µM, first compound 0.00316 µM): 79%
- viability, T/C (second compound 0.316 µM, first compound 0.01 µM): 46.1%
- viability, T/C [9]: 47.6%
- viability, T/C [10]: 43.4%
- viability, T/C [11]: 22%
- viability, T/C [12]: 12.9%
- viability, T/C (second compound 1 µM, first compound 0.00316 µM): 66.9%
- viability, T/C (second compound 1 µM, first compound 0.01 µM): 57%
- viability, T/C [13]: 51.8%
- viability, T/C [14]: 45%
- viability, T/C [15]: 23.1%
- viability, T/C [16]: 7.35%
- viability, T/C (second compound 3.16 µM, first compound 0.00316 µM): 66.7%
- viability, T/C (second compound 3.16 µM, first compound 0.01 µM): 51.6%
- viability, T/C [17]: 46.9%
- viability, T/C [18]: 40.4%
- viability, T/C [19]: 28.5%
- viability, T/C [20]: 7.68%
- viability, T/C (second compound 10 µM, first compound 0.00316 µM): 70.5%
- viability, T/C (second compound 10 µM, first compound 0.01 µM): 55.7%
- viability, T/C [21]: 43.6%
- viability, T/C [22]: 39.6%
- viability, T/C [23]: 28%
- viability, T/C [24]: 7.11%

SMILES: CNCc1ccc(-c2[nH]c3cc(F)cc4c3c2CCNC4=O)cc1 + COC1C(OC(N)=O)C(O)C(Oc2ccc3c(O)c(NC(=O)c4ccc(O)c(CC=C(C)C)c4)c(=O)oc3c2C)OC1(C)C
- IC50 (second compound 0.0316 µM): > 10000 nM
- IC50 (second compound 0.1 µM): > 10000 nM
- IC50 (second compound 0.316 µM): > 10000 nM
- IC50 (second compound 1 µM): > 10000 nM
- IC50 (second compound 3.16 µM): > 10000 nM
- IC50 (second compound 10 µM): > 10000 nM
- viability, T/C [1]: 94.8%
- viability, T/C [2]: 95.1%
- viability, T/C [3]: 101%
- viability, T/C [4]: 106%
- viability, T/C (second compound 0.0316 µM, first compound 3.16 µM): 126%
- viability, T/C (second compound 0.0316 µM, first compound 10 µM): 123%
- viability, T/C [5]: 96.4%
- viability, T/C [6]: 95.6%
- viability, T/C [7]: 92.9%
- viability, T/C [8]: 120%
- viability, T/C (second compound 0.1 µM, first compound 3.16 µM): 115%
- viability, T/C (second compound 0.1 µM, first compound 10 µM): 130%
- viability, T/C [9]: 102%
- viability, T/C [10]: 103%
- viability, T/C [11]: 106%
- viability, T/C [12]: 97.8%
- viability, T/C (second compound 0.316 µM, first compound 3.16 µM): 118%
- viability, T/C (second compound 0.316 µM, first compound 10 µM): 125%
- viability, T/C [13]: 101%
- viability, T/C [14]: 94.9%
- viability, T/C [15]: 107%
- viability, T/C [16]: 98%
- viability, T/C (second compound 1 µM, first compound 3.16 µM): 113%
- viability, T/C (second compound 1 µM, first compound 10 µM): 114%
- viability, T/C [17]: 103%
- viability, T/C [18]: 105%
- viability, T/C [19]: 93.8%
- viability, T/C [20]: 98.2%
- viability, T/C (second compound 3.16 µM, first compound 3.16 µM): 133%
- viability, T/C (second compound 3.16 µM, first compound 10 µM): 93.6%
- viability, T/C [21]: 102%
- viability, T/C [22]: 88.3%
- viability, T/C [23]: 107%
- viability, T/C [24]: 101%
- viability, T/C (second compound 10 µM, first compound 3.16 µM): 125%
- viability, T/C (second compound 10 µM, first compound 10 µM): 108%
